According to article PMC11576293, “New series of 4,6-diaryl pyrimidines: facile synthesis and antiproliferative activity as dual EGFR/VEGFR-2 inhibitors” (Frontiers in Chemistry, 2024):

Key:
Format in all cases: cell-based
786-0 = test: NCI-60 single-dose screen; settings: Homo sapiens, single dose 10 µM, '-' = no inhibition, read-out: % Growth Inhibition
Procedure: (§1) The National Cancer Institute’s Developmental Therapeutic Program (www.dtp.nci.nih.gov) has tested compounds 9–29 (except compounds 21 and 22) against 60 cancer cell lines from nine types (leukemia, lung, colon, CNS, melanoma, ovarian, renal, prostate, and breast cancer) at a single dose (10 μM) ([El-Sherief et al., 2018]). […] The most sensitive cells included leukemia (SR, K-562, and MOLT-4), lung (NCI-H522, […], and EKVX), breast (MCF-7 and T-47D), colon (HCT-15 and HT-29), and ovarian (NCI/ADR-RES).
(§2) The National Cancer Institute’s Developmental Therapeutic Program (www.dtp.nci.nih.gov) evaluated compounds 9–29 (excluding 21 and 22) against 60 cancer cell lines from nine categories (leukemia, lung, colon, CNS, melanoma, ovarian, renal, prostate, and breast cancer) at a single dose (10 μM) ([El-Sherief et al., 2018]). See Supplementary Material A1 for more details.

A549/ATCC = test: NCI-60 single-dose screen; settings: Homo sapiens, single dose 10 µM, '-' = no inhibition, read-out: % Growth Inhibition
Procedure: as §1, §2

ACHN 1 = test: NCI-60 single-dose screen; settings: Homo sapiens, single dose 10 µM, '-' = no inhibition, read-out: % Growth Inhibition
Procedure: as §1, §2

BT-549 = test: NCI-60 single-dose screen; settings: Homo sapiens, single dose 10 µM, '-' = no inhibition, read-out: % Growth Inhibition
Procedure: as §1, §2

CAKI-1 = test: NCI-60 single-dose screen; settings: Homo sapiens, single dose 10 µM, '-' = no inhibition, read-out: % Growth Inhibition
Procedure: as §1, §2

COLO 205 = test: NCI-60 single-dose screen; settings: Homo sapiens, single dose 10 µM, '-' = no inhibition, read-out: % Growth Inhibition
Procedure: as §1, §2

DU-145 = test: NCI-60 single-dose screen; settings: Homo sapiens, single dose 10 µM, '-' = no inhibition, read-out: % Growth Inhibition
Procedure: as §1, §2

HCC-2998 = test: NCI-60 single-dose screen; settings: Homo sapiens, single dose 10 µM, '-' = no inhibition, read-out: % Growth Inhibition
Procedure: as §1, §2

HCT-116 = test: NCI-60 single-dose screen; settings: Homo sapiens, single dose 10 µM, '-' = no inhibition, read-out: % Growth Inhibition
Procedure: as §1, §2

HL-60(TB) = test: NCI-60 single-dose screen; settings: Homo sapiens, single dose 10 µM, '-' = no inhibition, read-out: % Growth Inhibition
Procedure: as §1, §2

HOP-92 = test: NCI-60 single-dose screen; settings: Homo sapiens, single dose 10 µM, '-' = no inhibition, read-out: % Growth Inhibition
Procedure: as §1, §2

HS 578T = test: NCI-60 single-dose screen; settings: Homo sapiens, single dose 10 µM, '-' = no inhibition, read-out: % Growth Inhibition
Procedure: as §1, §2

HT29 = test: NCI-60 single-dose screen; settings: Homo sapiens, HT-29, single dose 10 µM, '-' = no inhibition, read-out: % Growth Inhibition
Procedure: as §1, §2

IGROV1 = test: NCI-60 single-dose screen; settings: Homo sapiens, IGROV-1, single dose 10 µM, '-' = no inhibition, read-out: % Growth Inhibition
Procedure: as §1, §2

K-562 = test: NCI-60 single-dose screen; settings: Homo sapiens, K562, single dose 10 µM, '-' = no inhibition, read-out: % Growth Inhibition
Procedure: as §1, §2

MDA-MB-468 = test: NCI-60 single-dose screen; settings: Homo sapiens, single dose 10 µM, '-' = no inhibition, read-out: % Growth Inhibition
Procedure: as §1, §2

MDA-MB231/ATCC = test: NCI-60 single-dose screen; settings: Homo sapiens, MDA-MB-231, single dose 10 µM, '-' = no inhibition, read-out: % Growth Inhibition
Procedure: as §1, §2

NCI-H23 = test: NCI-60 single-dose screen; settings: Homo sapiens, single dose 10 µM, '-' = no inhibition, read-out: % Growth Inhibition
Procedure: as §1, §2

NCI-H322M = test: NCI-60 single-dose screen; settings: Homo sapiens, single dose 10 µM, '-' = no inhibition, read-out: % Growth Inhibition
Procedure: as §1, §2

NCI-H460 = test: NCI-60 single-dose screen; settings: Homo sapiens, single dose 10 µM, '-' = no inhibition, read-out: % Growth Inhibition
Procedure: as §1, §2

NCI-H522 = test: NCI-60 single-dose screen; settings: Homo sapiens, single dose 10 µM, '-' = no inhibition, read-out: % Growth Inhibition
Procedure: as §1, §2

NCI/ADR-RES = test: NCI-60 single-dose screen; settings: Homo sapiens, single dose 10 µM, '-' = no inhibition, read-out: % Growth Inhibition
Procedure: as §1, §2

OVCAR-3 = test: NCI-60 single-dose screen; settings: Homo sapiens, single dose 10 µM, '-' = no inhibition, read-out: % Growth Inhibition
Procedure: as §1, §2

OVCAR-4 = test: NCI-60 single-dose screen; settings: Homo sapiens, single dose 10 µM, '-' = no inhibition, read-out: % Growth Inhibition
Procedure: as §1, §2

OVCAR-5 = test: NCI-60 single-dose screen; settings: Homo sapiens, single dose 10 µM, '-' = no inhibition, read-out: % Growth Inhibition
Procedure: as §1, §2

OVCAR-8 = test: NCI-60 single-dose screen; settings: Homo sapiens, single dose 10 µM, '-' = no inhibition, read-out: % Growth Inhibition
Procedure: as §1, §2

PC-3 = test: NCI-60 single-dose screen; settings: Homo sapiens, single dose 10 µM, '-' = no inhibition, read-out: % Growth Inhibition
Procedure: as §1, §2

RPMI-8226 = test: NCI-60 single-dose screen; settings: Homo sapiens, single dose 10 µM, '-' = no inhibition, read-out: % Growth Inhibition
Procedure: as §1, §2

RXF 393 = test: NCI-60 single-dose screen; settings: Homo sapiens, single dose 10 µM, '-' = no inhibition, read-out: % Growth Inhibition
Procedure: as §1, §2

SF-268 = test: NCI-60 single-dose screen; settings: Homo sapiens, single dose 10 µM, '-' = no inhibition, read-out: % Growth Inhibition
Procedure: as §1, §2

SF-539 = test: NCI-60 single-dose screen; settings: Homo sapiens, single dose 10 µM, '-' = no inhibition, read-out: % Growth Inhibition
Procedure: as §1, §2

SK-MEL-28 = test: NCI-60 single-dose screen; settings: Homo sapiens, single dose 10 µM, '-' = no inhibition, read-out: % Growth Inhibition
Procedure: as §1, §2

SK-MEL-2 = test: NCI-60 single-dose screen; settings: Homo sapiens, single dose 10 µM, '-' = no inhibition, read-out: % Growth Inhibition
Procedure: as §1, §2

SK-MEL-5 = test: NCI-60 single-dose screen; settings: Homo sapiens, single dose 10 µM, '-' = no inhibition, read-out: % Growth Inhibition
Procedure: as §1, §2

SK-OV-3 = test: NCI-60 single-dose screen; settings: Homo sapiens, single dose 10 µM, '-' = no inhibition, read-out: % Growth Inhibition
Procedure: as §1, §2

SN12C = test: NCI-60 single-dose screen; settings: Homo sapiens, single dose 10 µM, '-' = no inhibition, read-out: % Growth Inhibition
Procedure: as §1, §2

SNB-19 = test: NCI-60 single-dose screen; settings: Homo sapiens, single dose 10 µM, '-' = no inhibition, read-out: % Growth Inhibition
Procedure: as §1, §2

SR = test: NCI-60 single-dose screen; settings: Homo sapiens, single dose 10 µM, '-' = no inhibition, read-out: % Growth Inhibition
Procedure: as §1, §2

TK-10 = test: NCI-60 single-dose screen; settings: Homo sapiens, single dose 10 µM, '-' = no inhibition, read-out: % Growth Inhibition
Procedure: as §1, §2

U251 = test: NCI-60 single-dose screen; settings: Homo sapiens, U-251, single dose 10 µM, '-' = no inhibition, read-out: % Growth Inhibition
Procedure: as §1, §2

UACC-257 = test: NCI-60 single-dose screen; settings: Homo sapiens, single dose 10 µM, '-' = no inhibition, read-out: % Growth Inhibition
Procedure: as §1, §2

UACC-62 = test: NCI-60 single-dose screen; settings: Homo sapiens, single dose 10 µM, '-' = no inhibition, read-out: % Growth Inhibition
Procedure: as §1, §2

UO-31 = test: NCI-60 single-dose screen; settings: Homo sapiens, single dose 10 µM, '-' = no inhibition, read-out: % Growth Inhibition
Procedure: as §1, §2

[1] = test system: four cancer cell lines (A-549, MCF-7, Panc-1, HT-29); test: Antiproliferative assay, average over four cancer cell lines; settings: Homo sapiens; average of the four cancer cell lines; read-out: Average IC50 (GI50)
Description: Table 2 presents the four cancer cell lines’ median inhibitory concentration (IC50) and GI50 (average IC50) values.
The IC50 values were derived from dose-response tests. The reported data are derived from at least two independent studies, each comprising three replicates per concentration. See Supplementary Material A1 for more details.

## COc1ccc(-c2cc(-c3ccc(Cl)cc3)nc(SC)n2)cc1 [Compound 9, 4-(4-Chlorophenyl)-6-(4-methoxyphenyl)-2-(methylthio)pyrimidine]
786-0
  inhibition at 10 µM: 1.88%
A549/ATCC
  inhibition at 10 µM: 7.56%
ACHN 1
  inhibition at 10 µM: 4.08%
BT-549
  inhibition at 10 µM: < 0%
CAKI-1
  inhibition at 10 µM: 28.8%
COLO 205
  inhibition at 10 µM: 0.19%
DU-145
  inhibition at 10 µM: 5.68%
HCC-2998
  inhibition at 10 µM: < 0%
HCT-116
  inhibition at 10 µM: 5.47%
HL-60(TB)
  inhibition at 10 µM: 7.42%
HOP-92
  inhibition at 10 µM: 3.16%
HS 578T
  inhibition at 10 µM: 7.95%
HT29
  inhibition at 10 µM: 15.6%
IGROV1
  inhibition at 10 µM: 3.15%
K-562
  inhibition at 10 µM: 18.6%
MDA-MB-468
  inhibition at 10 µM: 26.2%
MDA-MB231/ATCC
  inhibition at 10 µM: 20.4%
NCI-H23
  inhibition at 10 µM: 9.87%
NCI-H322M
  inhibition at 10 µM: 14.3%
NCI-H460
  inhibition at 10 µM: 4.25%
NCI-H522
  inhibition at 10 µM: 16%
NCI/ADR-RES
  inhibition at 10 µM: 9.84%
OVCAR-3
  inhibition at 10 µM: < 0%
OVCAR-4
  inhibition at 10 µM: 4.46%
OVCAR-5
  inhibition at 10 µM: < 0%
OVCAR-8
  inhibition at 10 µM: 11%
PC-3
  inhibition at 10 µM: 6.22%
RPMI-8226
  inhibition at 10 µM: 10.8%
RXF 393
  inhibition at 10 µM: 7.91%
SF-268
  inhibition at 10 µM: 4.44%
SF-539
  inhibition at 10 µM: 6.28%
SK-MEL-28
  inhibition at 10 µM: < 0%
SK-MEL-2
  inhibition at 10 µM: < 0%
SK-MEL-5
  inhibition at 10 µM: 4.98%
SK-OV-3
  inhibition at 10 µM: < 0%
SN12C
  inhibition at 10 µM: 11.2%
SNB-19
  inhibition at 10 µM: 4.85%
SR
  inhibition at 10 µM: 12.7%
TK-10
  inhibition at 10 µM: < 0%
U251
  inhibition at 10 µM: 3.42%
UACC-257
  inhibition at 10 µM: 5.09%
UACC-62
  inhibition at 10 µM: 26%
UO-31
  inhibition at 10 µM: 18.1%
[1]
  IC50: 62 nM

## CCSc1nc(-c2ccc(Cl)cc2)cc(-c2ccc(OC)cc2)n1 [Compound 10, 4-(4-Chlorophenyl)-2-(ethylthio)-6-(4-methoxyphenyl)pyrimidine]
786-0
  inhibition at 10 µM: 3.07%
A549/ATCC
  inhibition at 10 µM: 11.2%
ACHN 1
  inhibition at 10 µM: 2.57%
BT-549
  inhibition at 10 µM: < 0%
CAKI-1
  inhibition at 10 µM: 13.3%
COLO 205
  inhibition at 10 µM: < 0%
DU-145
  inhibition at 10 µM: < 0%
HCC-2998
  inhibition at 10 µM: < 0%
HCT-116
  inhibition at 10 µM: 4.3%
HL-60(TB)
  inhibition at 10 µM: 6.15%
HOP-92
  inhibition at 10 µM: < 0%
HS 578T
  inhibition at 10 µM: 2.58%
HT29
  inhibition at 10 µM: 9.13%
IGROV1
  inhibition at 10 µM: < 0%
K-562
  inhibition at 10 µM: 11.5%
MDA-MB-468
  inhibition at 10 µM: < 0%
MDA-MB231/ATCC
  inhibition at 10 µM: < 0%
NCI-H23
  inhibition at 10 µM: 0.32%
NCI-H322M
  inhibition at 10 µM: < 0%
NCI-H460
  inhibition at 10 µM: < 0%
NCI-H522
  inhibition at 10 µM: 8.82%
NCI/ADR-RES
  inhibition at 10 µM: 1.42%
OVCAR-3
  inhibition at 10 µM: < 0%
OVCAR-4
  inhibition at 10 µM: 12.9%
OVCAR-5
  inhibition at 10 µM: < 0%
OVCAR-8
  inhibition at 10 µM: < 0%
PC-3
  inhibition at 10 µM: < 0%
RPMI-8226
  inhibition at 10 µM: 6.56%
RXF 393
  inhibition at 10 µM: < 0%
SF-268
  inhibition at 10 µM: < 0%
SF-539
  inhibition at 10 µM: < 0%
SK-MEL-28
  inhibition at 10 µM: < 0%
SK-MEL-2
  inhibition at 10 µM: 6.03%
SK-MEL-5
  inhibition at 10 µM: 3.36%
SK-OV-3
  inhibition at 10 µM: < 0%
SN12C
  inhibition at 10 µM: 0.46%
SNB-19
  inhibition at 10 µM: 0.21%
SR
  inhibition at 10 µM: 19.4%
TK-10
  inhibition at 10 µM: 0.94%
U251
  inhibition at 10 µM: 4.88%
UACC-257
  inhibition at 10 µM: < 0%
UACC-62
  inhibition at 10 µM: < 0%
UO-31
  inhibition at 10 µM: 10.5%
[1]
  IC50: 76 nM
